# Measured values taken from ChEMBL document CHEMBL1201862, “PubChem BioAssay data set” (2004).
# Activity calls are given as the source filed them.
# What was measured:
# [1] = target: T1, Sentrin-specific protease 8 (Homo sapiens, UniProt Q96LD8); format: functional
# T1 sequence (Q96LD8 whole entry): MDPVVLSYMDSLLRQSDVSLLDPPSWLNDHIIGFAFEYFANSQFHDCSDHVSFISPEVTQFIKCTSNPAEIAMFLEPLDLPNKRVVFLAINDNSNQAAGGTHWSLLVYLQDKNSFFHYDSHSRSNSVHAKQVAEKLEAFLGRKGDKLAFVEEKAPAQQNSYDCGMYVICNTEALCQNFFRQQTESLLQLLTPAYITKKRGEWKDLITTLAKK
# [2] = target: T1, Sentrin-specific protease 8; format: functional; remark: listed apart in the source
# [3] = viability loss in HEK293T cells – cell-based, cherry-picks, cytotoxicity control for HIV Vif inhibitor project, dose response (AID 652208); format: functional
# [4] = target: ADP-ribosylation factor GTPase-activating protein 1 (Rattus norvegicus, UniProt Q62848); assay: Fluorescence polarization-based biochemical high throughput dose response screening assay to identify inhibitors of ADP-ribosylation factor GTPase activating protein 1 (ARFGAP1).; format: functional
# ADP-ribosylation factor GTPase-activating protein 1, sequence (Q62848 whole entry): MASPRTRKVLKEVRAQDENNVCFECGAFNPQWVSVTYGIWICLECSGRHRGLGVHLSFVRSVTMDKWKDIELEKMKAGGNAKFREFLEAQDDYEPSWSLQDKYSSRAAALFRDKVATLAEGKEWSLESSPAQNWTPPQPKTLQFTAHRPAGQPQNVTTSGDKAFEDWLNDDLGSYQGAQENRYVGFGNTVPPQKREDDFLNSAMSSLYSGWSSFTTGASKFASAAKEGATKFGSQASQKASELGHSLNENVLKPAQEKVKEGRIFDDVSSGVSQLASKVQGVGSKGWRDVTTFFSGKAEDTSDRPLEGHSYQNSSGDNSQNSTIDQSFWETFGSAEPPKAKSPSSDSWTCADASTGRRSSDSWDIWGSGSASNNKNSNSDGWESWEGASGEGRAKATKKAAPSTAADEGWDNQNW
# [5] = nonselective StAR promoter luciferase inhibitors – cell-based, luminescence, luciferase reporter, counter-screen for LRH-1 inverse agonist project, dose response (AID 651969); format: functional
# [6] = target: Nuclear receptor subfamily 5 group A member 2 (Homo sapiens, UniProt O00482); format: functional, cell-based;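 also: HEK293T cells transfected with LRH-1 and a StAR promoter luciferase reporter; potency for inhibitors that lower LRH-1 driven reporter light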
# Nuclear receptor subfamily 5 group A member 2, sequence (O00482 whole entry): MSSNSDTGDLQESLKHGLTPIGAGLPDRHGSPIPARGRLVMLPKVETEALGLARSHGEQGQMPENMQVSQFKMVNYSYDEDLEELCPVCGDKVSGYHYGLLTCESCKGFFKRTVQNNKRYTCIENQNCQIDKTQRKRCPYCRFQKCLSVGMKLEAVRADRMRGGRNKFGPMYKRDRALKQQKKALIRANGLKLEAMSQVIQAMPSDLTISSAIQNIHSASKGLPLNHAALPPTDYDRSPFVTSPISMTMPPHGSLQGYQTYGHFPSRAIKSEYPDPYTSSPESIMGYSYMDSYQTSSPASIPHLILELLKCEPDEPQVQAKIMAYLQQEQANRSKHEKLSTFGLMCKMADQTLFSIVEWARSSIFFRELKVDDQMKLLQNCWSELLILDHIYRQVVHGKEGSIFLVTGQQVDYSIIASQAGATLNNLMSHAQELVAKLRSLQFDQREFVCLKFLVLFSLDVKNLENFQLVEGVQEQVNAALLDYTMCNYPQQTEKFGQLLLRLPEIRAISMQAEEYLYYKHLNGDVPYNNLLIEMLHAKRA
# Steroidogenic factor 1 = Steroidogenic factor 1 (Homo sapiens, UniProt Q13285); assay: Counterscreen for inverse agonists of the liver receptor homolog-1 (LRH-1; NR5A2): Luminescence-based cell-based high throughput dose response assay to identify inverse agonists of the Steroidogenic Factor 1 Nuclear Receptor (SF1; NR5A1).; format: functional
# Steroidogenic factor 1, sequence (Q13285 whole entry): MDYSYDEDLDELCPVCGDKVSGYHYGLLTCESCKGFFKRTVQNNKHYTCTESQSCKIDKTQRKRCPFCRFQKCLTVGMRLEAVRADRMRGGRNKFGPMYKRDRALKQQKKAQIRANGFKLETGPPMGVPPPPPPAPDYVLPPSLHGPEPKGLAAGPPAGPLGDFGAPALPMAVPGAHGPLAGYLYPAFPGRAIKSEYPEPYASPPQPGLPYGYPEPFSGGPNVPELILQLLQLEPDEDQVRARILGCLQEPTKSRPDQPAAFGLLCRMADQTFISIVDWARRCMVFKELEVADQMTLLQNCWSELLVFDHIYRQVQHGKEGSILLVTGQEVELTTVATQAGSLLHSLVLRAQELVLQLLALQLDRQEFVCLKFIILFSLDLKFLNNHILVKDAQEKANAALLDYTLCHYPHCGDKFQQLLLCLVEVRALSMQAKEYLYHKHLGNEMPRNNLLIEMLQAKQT
# [7] = target: T2, Alkaline phosphatase, tissue-nonspecific isozyme (Homo sapiens, UniProt P05186); assay: activation of tissue-nonspecific alkaline phosphatase – biochemical, TNAP isozyme, human IAP uHTS hits, selectivity assay for human IAP activator project, dose response (AID 488886); format: functional;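 also: potency of compounds raising TNAP activity as a selectivity check on IAP activators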
# T2 sequence (P05186 whole entry): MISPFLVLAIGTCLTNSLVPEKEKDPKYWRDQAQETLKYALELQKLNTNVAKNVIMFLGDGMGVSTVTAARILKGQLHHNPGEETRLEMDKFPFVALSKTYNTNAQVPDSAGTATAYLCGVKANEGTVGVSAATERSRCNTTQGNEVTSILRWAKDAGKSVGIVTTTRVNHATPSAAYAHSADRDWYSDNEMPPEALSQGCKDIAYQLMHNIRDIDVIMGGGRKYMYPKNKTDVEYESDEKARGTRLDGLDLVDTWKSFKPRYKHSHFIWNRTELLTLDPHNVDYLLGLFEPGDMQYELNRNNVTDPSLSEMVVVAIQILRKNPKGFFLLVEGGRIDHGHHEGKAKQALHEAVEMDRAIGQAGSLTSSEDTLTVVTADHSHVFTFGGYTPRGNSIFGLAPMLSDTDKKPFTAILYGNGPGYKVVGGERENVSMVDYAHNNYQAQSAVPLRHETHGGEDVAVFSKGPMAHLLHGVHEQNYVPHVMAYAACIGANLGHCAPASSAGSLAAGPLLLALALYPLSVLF
# [8] = target: Intestinal-type alkaline phosphatase (Mus musculus, UniProt P24822); assay: PubChem AID 488875; format: functional
# Intestinal-type alkaline phosphatase (Mus musculus, UniProt P24822), sequence (P24822 whole entry): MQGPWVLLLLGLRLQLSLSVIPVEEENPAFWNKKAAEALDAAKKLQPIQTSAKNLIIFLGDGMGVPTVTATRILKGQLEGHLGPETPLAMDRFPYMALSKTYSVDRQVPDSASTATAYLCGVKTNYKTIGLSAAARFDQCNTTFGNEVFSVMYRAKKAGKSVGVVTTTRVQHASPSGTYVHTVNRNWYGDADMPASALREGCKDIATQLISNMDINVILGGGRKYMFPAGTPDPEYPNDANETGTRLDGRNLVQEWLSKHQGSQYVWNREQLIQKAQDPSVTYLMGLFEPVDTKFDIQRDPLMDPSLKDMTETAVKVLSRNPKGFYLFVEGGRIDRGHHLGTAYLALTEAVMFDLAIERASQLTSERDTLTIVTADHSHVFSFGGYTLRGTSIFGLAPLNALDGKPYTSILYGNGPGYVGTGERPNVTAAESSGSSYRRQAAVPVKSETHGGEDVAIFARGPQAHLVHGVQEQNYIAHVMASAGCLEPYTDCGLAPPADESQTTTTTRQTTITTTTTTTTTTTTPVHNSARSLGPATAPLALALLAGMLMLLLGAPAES
# [9] = target: T3, Intestinal-type alkaline phosphatase (Homo sapiens, UniProt P09923); assay: activation of human intestinal alkaline phosphatase – biochemical, luminescent, uHTS hits, set 2, dose response (AID 488817); format: functional;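 also: potency of activators that raise enzyme activity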
# T3 sequence (P09923 whole entry): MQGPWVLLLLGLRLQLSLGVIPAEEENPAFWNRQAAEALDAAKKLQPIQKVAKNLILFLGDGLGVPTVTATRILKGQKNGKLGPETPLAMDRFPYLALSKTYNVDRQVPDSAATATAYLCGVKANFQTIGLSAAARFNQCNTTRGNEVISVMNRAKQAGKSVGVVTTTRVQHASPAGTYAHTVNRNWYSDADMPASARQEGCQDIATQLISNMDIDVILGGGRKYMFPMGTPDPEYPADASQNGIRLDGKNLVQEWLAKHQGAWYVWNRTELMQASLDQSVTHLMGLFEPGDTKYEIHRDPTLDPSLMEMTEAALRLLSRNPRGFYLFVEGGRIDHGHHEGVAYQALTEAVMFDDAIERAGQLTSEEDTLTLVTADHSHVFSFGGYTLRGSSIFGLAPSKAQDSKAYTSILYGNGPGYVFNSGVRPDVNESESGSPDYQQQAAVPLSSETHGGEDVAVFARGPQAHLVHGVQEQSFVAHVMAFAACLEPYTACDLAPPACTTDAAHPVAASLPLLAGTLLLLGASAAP
# [10] = target: T3, Intestinal-type alkaline phosphatase; assay: human intestinal alkaline phosphatase activators, dose response, biochemical, luminescence, uHTS hits (AID 463120); format: functional
# Albumin = Albumin (Bos taurus, UniProt P02769); assay: Counterscreen for inhibitors of T-cell receptor (TCR)-CD3 interaction: Fluorescence-based biochemical high throughput dose response assay to identify inhibitors of T-cell receptor (TCR)-CD3 interaction using a TAMRA-labeled BSA probe.; format: functional
# Albumin, sequence (P02769 whole entry): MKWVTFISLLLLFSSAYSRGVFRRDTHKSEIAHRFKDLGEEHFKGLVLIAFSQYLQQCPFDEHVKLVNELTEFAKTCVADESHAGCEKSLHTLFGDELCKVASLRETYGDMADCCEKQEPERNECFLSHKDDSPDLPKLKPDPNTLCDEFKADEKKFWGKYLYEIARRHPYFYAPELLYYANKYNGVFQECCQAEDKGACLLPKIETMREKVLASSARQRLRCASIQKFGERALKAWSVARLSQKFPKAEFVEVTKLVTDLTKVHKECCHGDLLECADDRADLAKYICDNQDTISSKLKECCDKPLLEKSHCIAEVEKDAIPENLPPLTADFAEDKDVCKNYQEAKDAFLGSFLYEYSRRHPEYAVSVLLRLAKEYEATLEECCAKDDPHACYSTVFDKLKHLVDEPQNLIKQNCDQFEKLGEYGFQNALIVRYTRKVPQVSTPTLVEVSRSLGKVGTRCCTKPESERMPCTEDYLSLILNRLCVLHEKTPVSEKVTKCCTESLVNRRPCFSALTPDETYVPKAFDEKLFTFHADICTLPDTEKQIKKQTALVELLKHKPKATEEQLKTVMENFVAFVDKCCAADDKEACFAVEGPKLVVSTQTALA
# cells = format: functional, cell-based; conditions: HEK-CNG
# Galanin receptor type 3 = Galanin receptor type 3 (Homo sapiens, UniProt O60755); assay: Fluorescence-based cell-based primary high throughput dose response assay to identify antagonists of the Galanin Receptor 3 (GalR3).; format: functional
# Galanin receptor type 3, sequence (O60755 whole entry): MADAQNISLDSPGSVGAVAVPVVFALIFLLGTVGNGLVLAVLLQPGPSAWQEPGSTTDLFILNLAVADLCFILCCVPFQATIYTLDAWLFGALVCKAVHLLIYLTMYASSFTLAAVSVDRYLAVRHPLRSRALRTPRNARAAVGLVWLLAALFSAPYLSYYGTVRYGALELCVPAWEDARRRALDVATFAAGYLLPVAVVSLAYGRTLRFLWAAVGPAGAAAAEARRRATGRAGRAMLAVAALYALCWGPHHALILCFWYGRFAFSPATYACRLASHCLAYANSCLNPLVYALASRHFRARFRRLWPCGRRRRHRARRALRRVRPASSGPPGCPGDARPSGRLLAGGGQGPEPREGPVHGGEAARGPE
# Beta Lactamase [11] = target: T4, Beta Lactamase (Pseudomonas aeruginosa, UniProt Q932Y6); assay: Ki and modality of VIM-2 inhibitors – biochemical, probe results, mechanism study, late-stage follow-up, panel member Nitrocefin-based IMP1 Inhibition Counterscreen (AID 2128)
# T4 sequence (Q932Y6 whole entry): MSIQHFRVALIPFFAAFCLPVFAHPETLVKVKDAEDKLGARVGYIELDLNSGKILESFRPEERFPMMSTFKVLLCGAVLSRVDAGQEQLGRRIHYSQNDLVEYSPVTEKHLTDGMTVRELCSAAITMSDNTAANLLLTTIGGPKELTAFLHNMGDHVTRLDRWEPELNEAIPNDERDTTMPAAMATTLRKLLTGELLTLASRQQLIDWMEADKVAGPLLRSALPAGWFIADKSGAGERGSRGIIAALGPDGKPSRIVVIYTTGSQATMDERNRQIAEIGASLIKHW
# Beta-lactamase [12] = target: T5, Beta-lactamase (Pseudomonas aeruginosa, UniProt Q79MP6); assay: […] counterscreen for selective VIM-2 inhibitors: dose response biochemical high throughput screening assay to identify inhibitors of IMP-1 metallo-beta-lactamase.
# T5 sequence (Q79MP6 whole entry): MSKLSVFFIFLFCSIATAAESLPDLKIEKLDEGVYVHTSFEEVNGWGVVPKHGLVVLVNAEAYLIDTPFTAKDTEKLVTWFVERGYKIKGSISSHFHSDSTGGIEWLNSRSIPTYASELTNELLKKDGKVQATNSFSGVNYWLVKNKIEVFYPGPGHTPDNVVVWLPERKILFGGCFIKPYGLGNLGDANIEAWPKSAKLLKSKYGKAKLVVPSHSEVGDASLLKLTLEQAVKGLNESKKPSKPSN
# Beta-lactamase [13] = target: T6, Beta-lactamase (Salmonella choleraesuis (strain SC-B67), UniProt Q5J463); assay: Late stage results from the probe development efforts to identify selective inhibitors of VIM-2 metallo-beta-lactamase: probe results. Panel member name: Nitrocefin-based TEM-1 Inhibition Counterscreen
# T6 sequence (Q5J463 whole entry): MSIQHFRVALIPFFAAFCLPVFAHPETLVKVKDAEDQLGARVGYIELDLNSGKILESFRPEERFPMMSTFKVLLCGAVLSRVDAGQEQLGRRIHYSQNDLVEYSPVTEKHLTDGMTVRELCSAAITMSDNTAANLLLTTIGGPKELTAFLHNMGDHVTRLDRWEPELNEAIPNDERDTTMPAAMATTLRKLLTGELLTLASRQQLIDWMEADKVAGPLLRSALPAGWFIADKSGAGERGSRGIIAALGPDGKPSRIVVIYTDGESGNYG
# Beta Lactamase [14] = target: T4, Beta Lactamase; assay: Ki and modality of VIM-2 inhibitors – biochemical, probe results, mechanism study, late-stage follow-up, panel member Nitrocefin-based VIM2 Inhibition Assay (AID 2128)
# Beta-lactamase [15] = target: T5, Beta-lactamase; assay: inhibition of IMP-1 beta-lactamase activity – biochemical, epi-absorbance, selectivity assay for VIM-2 inhibitor project, dose response (AID 1920)
# Beta-lactamase [16] = target: T6, Beta-lactamase; assay: Epi-absorbance-based counterscreen for selective VIM-2 inhibitors: dose response biochemical high throughput screening assay to identify inhibitors of TEM-1 serine-beta-lactamase.
structure (smiles),measurement,setting,value
O=C(CCS(=O)(=O)Cc1ccccc1F)N1CCc2ccccc2C1,IC50,[1],7.69 µM (active)
same,IC50,[2],> 100 µM (inactive)
COc1ccc(-n2nc(C(=O)NCC(=O)Nc3cccc(Cl)c3)c3ccccc3c2=O)cc1OC,AC50,[3],17.4 µM (active)
same,IC50,[4],83.9 µM (inactive)
O=C(COC(=O)CCN1C(=O)C2CC=CCC2C1=O)NCCc1ccc(F)cc1 (stereo not given),IC50,[5],35.9 µM (inactive)
same,IC50,[6],19.1 µM (inactive)
same,IC50,Steroidogenic factor 1,2.33 µM (active)
Cc1ccc(NC(=O)NNC(=O)c2cc3ccccc3cc2O)cc1,EC50,[7],13 µM (active)
same,EC50,[8],> 100 µM (inactive)
same,EC50,[9],14.9 µM (active)
same,EC50,[10],9.83 µM (active)
same,IC50,Albumin,> 94.1 µM (inactive)
CC(=O)c1cn(CC(=O)NCCc2c[nH]c3ccccc23)c2ccccc12,EC50,cells,> 29.9 µM (inactive)
same,IC50,Galanin receptor type 3,2.7 µM (active)
O=c1[nH]c2c(s1)C(c1cccnc1)C1C3CCC(C3)C1S2 (stereo not given),IC50,Beta Lactamase [11],> 60 µM (inactive)
same,IC50,Beta-lactamase [12],> 59.6 µM (inactive)
same,IC50,Beta-lactamase [13],> 60 µM (active)
same,IC50,Beta Lactamase [14],0.223 µM (active)
same,IC50,Beta-lactamase [15],> 59.6 µM (inactive)
same,IC50,Beta-lactamase [16],> 59.6 µM (inactive)
